Data reported in patent US10201558B2, “Compositions of selenoorganic compounds and methods of use thereof” (Alltech, Inc., priority 2014, dated 2019).
“Also recorded” adds a separate entry of the source.

Tests used:
[1] = tested on: phosphorylated Tau (pTau S396, pTau S400/T403/S404); assay: Western blot of phosphorylated Tau in IMR-32 cells; type: cell-based, human; details: 150 ppb, 24 hours
Description: IMR-32 cells were seeded on 6-well plates and then treated with control and various compounds for 6 hours and 24 hours, as described above. After treatments, cells were rinsed with ice-cold PBS and lysed in ice-cold RIPA buffer containing complete proteinase and phosphatase inhibitors (Thermo-Fisher Scientific, Waltham, Mass.) on ice for 30 min Cell lysates were collected using a cell scraper and transfer pipette and then centrifuged at 12000×g for 30 min at 4° C. to remove the DNA pellet and obtain the protein extract. Protein levels in the supernatant of these cell lysates were determined using the Pierce Micro-BCA protein assay kit (Thermo Scientific-Piece Biotechnology, Rockford, Ill.) according to the manufacturer's protocol
For Western blot analysis, five micrograms of total proteins from control (0 ppb)- and compound(s)-treated cells were subjected to SDS-PAGE gel separation and then transferred to PVDF membranes, as described previously (Reddy, Liu et al. 2008 Science). Membranes were blocked in a phosphate-buffered saline (PBS) containing 5% (w/v) of bovine serum albumin (Sigma, St. Louis, Mo.) and incubated with specific primary antibodies followed by the incubation with HRP-conjugated anti-mouse or anti-rabbit secondary antibodies (1:5000 dilution, Cell Signaling Inc.). All primary antibodies except PGC1a (Abcam, Cambridge, Mass.), G6pc (Santa Cruz, Dallas, Tex.) and Actb (Li-Cor, Lincoln, Nebr.) were purchased from Cell Signaling Inc., Beverly, Mass.
Positive signals on the membrane blots were detected using Amersham's enhanced chemiluminescence (ECL) Western Blotting Prime Detection reagents (GE healthcare Lifescience, Pittsburgh, Pa.). Images of these luminescence signals on the membrane blots were captured using the LI-COR Odyssey Fc Image system (Lincoln, Nebr.). The same membrane blot was stripped and re-blotted with another antibody as described in the GE WB ECL-prime-detection protocol (GE Healthcare Lifescience, Pittsburgh, Pa.). Protein band densities in the Western blots were determined using the Li—COR Image studio software or NIH ImageJ software, and then normalized by ACTB protein level in each sample. Data are presented as mean±SEM of three samples per each group.
To determine whether selenium Compound C, Compound D or Compound E can potentially contribute to diminished tangle formation in AD, the phosphorylation of two AD biomarkers, pTau S396 (Serine 396) and pTauS400/T403/5404 (Serine 400, Threonine 403, and Serine 404), as well as the Total Tau protein levels was assessed in IMR-32 cells. Phosphorylation of Tau at the indicated amino acid sites has been associated with destabilization of the Tau protein and the eventual formation of tangles. For this purpose, cells were treated with 150 ppb of Compound C, Compound D, or Compound E for 6 hours and 24 hours, and then subjected to Western blot analysis (see FIG. 4A). Mean±SEM, n=3.

[2] = tested on: primary fetal rat neurons; assay: Cell survival of primary cortical neurons (cell counts); type: cell-based; details: 150 ppb selenium compound(s), 24 hours; Control 100 ± 1.57; mixture: 30 ppb of the element from each compound
Description: For primary neurons, dissociated primary cortical neuron cultures were established from E-18 rat embryos as previously described (Lovell et al., Free Radic. Biol. Med. 2000; Lovell et al., Neurobiol. Aging 2001). Studies were carried out on cells 7 days in culture by switching to Locke's solution consisting of 1 mL of 154 mM NaCl, 5.6 mM KCl, 2.3 mM CaCl2, 1.0 mM MgCl2, 3.6 mM NaHCO3, 10 mM glucose, 5 mM HEPES (pH 7.2) with 10 mg/L gentamicin sulfate. Primary neurons were treated for 24 hours in Locke's solution with the indicated selenium and sulfur compounds in Table 5. Cell counts were performed to measure cell survival/toxicity.
The effects of the selenium and sulfur compounds, identified as components of water extracts of selenium-enriched yeast, on neuronal cell survival was also tested. Primary neurons isolated from fetal rat brain were incubated with chemically synthesized individual selenium and sulfur compounds that were identified as components of water extracts of selenium-enriched yeast (Table 5). In this case, the elemental concentration of each compound identified in Table 5 was 150 ppb and, where mixtures were used, the 150 ppb treatment was made up of 30 ppb of the element from each of the five compounds in question.

[3] = tested on: NICASTRIN; assay: QRT-PCR of NICASTRIN mRNA in IMR-32 cells (normal, control KD, FOXO4 KD); type: cell-based, human
Description: IMR-32 cells were cultured on 12-well plates for 24 hours and then incubated with FOXO4 siRNA lentiviruses (SC-29650V, Santa Cruz) or control siRNA lentiviruses (sc-108080, Santa Cruz) in the presence of Polybrene (5 μg/ml, Santa Cruz) for 24 hours according to the manufacturer's protocol. These lentiviral siRNA-transfected cells were amplified in normal media for 3 days and then incubated with puromycin for 9-14 days to obtain the stable Control KD (stably transfected with the control siRNAs) and FOXO4KD (stably transfected with Foxo4 siRNAs) cells. These control and Foxo4 KD cells were subjected to cell survival, mitochondrial potential and RNA analysis.
(§1) Human IMR-32 cells were seeded on gelatinized 6-well (6.5×10^5 cells/well) or 24-well (1.3×10^5 cells/well) plates. Cells were treated with control (0 ppb) or various compounds for 6 hours or 24 hours. Total RNA from these cells was isolated using Trizol (Invitrogen) according to the manufacturer's protocol, and then incubated with DNase I to remove any potential contaminated genomic DNA. Then RNA samples were subjected to real-time PCR analysis using the Applied-Bioscience's RT kit and predesigned Taqman probes (Invitrogen), as described previously (Lan et al EMBO J 2003). The mRNA levels of UCP1, UCP2, UCP3, SLC25A27 (UCP4), SLC25A14 (UCP5), PSEN1, Nicastrin, GSK3B, MAPK11-14, PPARG, APOE, RCAN1, RCAN1.1, G6PC, INSR, IGF1R and FOXO4 were measured. Three to six samples were analyzed in each treatment group. Data were normalized by Actin B (ACTB) or Glyceraldehyde Phosphate Dehydrogenase (GAPDH) mRNA levels in each sample and are presented as mean±SEM of 3-6 samples.
RNA samples were extracted, purified, and subjected to real-time PCR analysis using Applied-Bioscience's RT kit and Taqman probes (Invitrogen) as described previously in Example 4. Protein samples were also prepared from cell lysates and western blot analysis was performed as previously described in Example 4. Data are presented as mean±SEM of 3 protein samples and 4 RNA samples per group. The relative mRNA and protein expression levels of PSEN1 and NICASTRIN, were measured. All primary antibodies were purchased from Cell Signaling Inc., Beverly, Mass.
Expression of genes such as Nicastrin and GSK3B (FIGS. 3A, 3C, 3G-3I, 4A, 4F-4H) which are associated with early-onset AD pathogenesis was attenuated by Compound C. […] Therefore, GSK3B and Nicastrin likely are two direct downstream target genes of FOXO4 in neuronal cells in humans.

[4] = tested on: UCP3; assay: QRT-PCR of UCP3 mRNA in IMR-32 cells; type: cell-based, human; details: 150 ppb, 6 hours
Description: as §1

C[Se]C[C@H]1O[C@@H](n2cnc3c(N)ncnc32)C(O)C1O (stereo in doubt) [Compound C, 5′-deoxy-5′-methylselenoadenosine]
phosphorylation of Tau at 5400/T403/5404 [1]: significantly inhibited
phosphorylation of Tau at S396 [1]: not at S396
ratio of total pTau at both S396 and S400/T403/S404 to total Tau proteins [1]: significantly attenuated
Viable Cell Number (Mean ± SEM, n = 6) [2]: 101.1 ± 4.22
NICASTRIN mRNA expression ([3]; FOXO4KD cells, 75 ppb and 150 ppb, 24 hours): not significantly altered
NICASTRIN mRNA expression, dose-response study ([3]; IMR-32 cells, 150 ppb, 24 hours): significantly inhibit
NICASTRIN mRNA expression ([3]; IMR-32 cells, 6 hours): trend towards reduced
NICASTRIN mRNA expression ([3]; IMR-32 cells, 24 hours): significant decrease
NICASTRIN mRNA expression ([3]; control KD cells, 75 ppb and 150 ppb, 24 hours): inhibited
UCP3 mRNA expression [4]: significant decrease; also recorded: inhibited

C[Se]C[C@H](NC(=O)CC[C@H](N)C(=O)O)C(=O)O [Compound E, γ-L-glutamyl-Se-methyl-L-selenocysteine]
phosphorylation of Tau at 5400/T403/5404 [1]: significantly down-regulated
phosphorylation of Tau at S396 [1]: significantly down-regulated
ratio of total pTau at both S396 and S400/T403/S404 to total Tau proteins [1]: trend towards reduced
Viable Cell Number (Mean ± SEM, n = 6) [2]: 95.69 ± 10.53
NICASTRIN mRNA expression ([3]; IMR-32 cells, 24 hours): stimulated
UCP3 mRNA expression [4]: did not have any effect
